According to patent publication US20260265233A1, “BENZOTHIOPHENE DERIVATIVES AS RXFP1 AGONISTS” (BRISTOL-MYERS SQUIBB COMPANY, priority 2021, published 2026):

Biological target: T1, human RXFP1 (Homo sapiens, UniProt Q9HBX9)
T1 construct: expressed in transfected cells
T1 sequence (Q9HBX9 1-757): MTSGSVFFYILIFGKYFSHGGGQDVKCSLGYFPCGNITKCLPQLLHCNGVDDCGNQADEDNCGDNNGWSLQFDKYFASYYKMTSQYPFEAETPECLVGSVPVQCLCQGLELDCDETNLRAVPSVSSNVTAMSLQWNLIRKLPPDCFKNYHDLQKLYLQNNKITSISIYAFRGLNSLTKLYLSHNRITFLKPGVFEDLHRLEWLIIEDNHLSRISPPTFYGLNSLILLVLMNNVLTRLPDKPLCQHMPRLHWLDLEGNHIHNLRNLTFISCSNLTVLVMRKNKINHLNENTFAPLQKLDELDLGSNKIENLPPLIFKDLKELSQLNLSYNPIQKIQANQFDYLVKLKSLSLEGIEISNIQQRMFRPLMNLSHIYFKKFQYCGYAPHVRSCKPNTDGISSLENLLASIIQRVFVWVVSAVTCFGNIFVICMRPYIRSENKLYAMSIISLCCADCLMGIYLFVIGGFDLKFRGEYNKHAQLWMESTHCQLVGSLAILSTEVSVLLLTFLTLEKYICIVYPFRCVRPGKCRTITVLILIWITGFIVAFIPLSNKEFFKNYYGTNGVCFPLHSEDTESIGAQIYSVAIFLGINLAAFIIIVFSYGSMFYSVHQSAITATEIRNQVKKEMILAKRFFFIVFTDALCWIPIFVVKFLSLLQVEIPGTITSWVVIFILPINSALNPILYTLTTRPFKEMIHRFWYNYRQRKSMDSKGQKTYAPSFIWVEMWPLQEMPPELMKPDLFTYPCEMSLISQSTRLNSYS
Experiment: hRXFP1 HEK293 cAMP assay (HTRF)
Type: cell-based
Settings: HEK293 cells stably expressing human RXFP1; 30 min at rt; intracellular cAMP by HTRF
Method in brief: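 HEK293 cells stably expressing human RXFP1 treated 30 min at rt with compound (0.010 nM to 50 μM, 2% DMSO) in HBSS/HEPES buffer with 0.5 mM IBMX. Intracellular cAMP measured by HTRF (665/590 nm ratio) against a cAMP standard curve; potency fitted by 4-parameter logistic.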

Row | EC50 [nM] | SMILES
1 | 58.4 | COc1ccc(C2CC2C(=O)O)cc1C(=O)Nc1c(C(=O)Nc2ccc(F)c(C(F)(F)F)c2)sc2cc(C(F)(F)F)ccc12 (single isomer, unassigned) [Example 48, 2-(3-((2-((4-fluoro-3-(trifluoromethyl)phenyl)carbamoyl)-6-(trifluoromethyl)benzo[b]thiophen-3-yl)carbamoyl)-4-methoxyphenyl) cyclopropane-1-carboxylic acid]
2 | 420 | COc1ccc(C2CCC(O)CC2)cc1C(=O)Nc1c(C(=O)Nc2ccc(F)c(C(F)(F)F)c2)sc2cc(C(F)(F)F)ccc12 (single isomer, unassigned) [Example 75, N-(4-fluoro-3-(trifluoromethyl)phenyl)-3-(5-(4-hydroxycyclo-hexyl)-2-methoxy-benzamido)-6-(trifluoromethyl) benzo[b] thiophene-2-carboxamide]
3 | 444 | COc1ccc(C(=O)N2CCO[C@@H](CO)C2)cc1C(=O)Nc1c(C(=O)Nc2ccc(F)c(C(F)(F)F)c2)sc2cc(C(F)(F)F)ccc12 [Example 129, (R)-N-(4-fluoro-3-(trifluoromethyl)phenyl)-3-(5-(2-(hydroxymethyl)morpholine-4-carbonyl)-2-methoxy-benzamido)-6-(trifluoromethyl) benzo[b] thiophene-2-carboxamide]
4 | 736 | COc1cc(F)c(C(=O)N2CC3(COC3)C2)cc1C(=O)Nc1c(C(=O)Nc2ccc(F)c(C(F)(F)F)c2)sc2cc(C(F)(F)F)ccc12 [Example 185, 3-(4-fluoro-2-methoxy-5-(2-oxa-6-azaspiro[3.3]heptane-6-carbonyl)benzamido)-N-(4-fluoro-3-(trifluoromethyl)phenyl)-6-(trifluoromethyl) benzo[b] thiophene-2-carboxamide]
5 | 4.9 | COc1ccc(C2=NOC3CC(CO)CC23)cc1C(=O)Nc1c(C(=O)Nc2ccc(F)c(C(F)(F)F)c2)sc2cc(C(F)(F)F)ccc12 (single isomer, unassigned) [Example 268, N-[4-fluoro-3-(trifluoromethyl)phenyl]-3-{5-[5-(hydroxymethyl)-3aH,4H,5H,6H, 6aH-cyclopenta[d] [1,2]oxazol-3-yl]-2-methoxy-benzamido}-6-(trifluoromethyl)-1-benzothiophene-2-carboxamide]
6 | 3700 | COc1ccc(C2=NOC(CO)C2)cc1C(=O)Nc1c(C(=O)Nc2ccc(F)c(C(F)(F)F)c2)sc2cc(C(F)(F)F)ccc12 (single isomer, unassigned) [Example 249, N-(4-fluoro-3-(trifluoromethyl)phenyl)-3-(5-(5-(hydroxymethyl)-4,5-dihydroisoxazol-3-yl)-2-methoxy-benzamido)-6-(trifluoromethyl) benzo[b] thiophene-2-carboxamide]
7 | 689 | COc1ccc(C(=O)NC(C)(C)CO)cc1C(=O)Nc1c(C(=O)Nc2ccc(F)c(C(F)(F)F)c2)sc2cc(C(F)(F)F)ccc12 [Example 190, N3-(2-((4-fluoro-3-(trifluoromethyl)phenyl)carbamoyl)-6-(trifluoromethyl)benzo[b]thiophen-3-yl)-N1-(1-hydroxy-2-methylpropan-2-yl)-4-methoxy-isophthalamide]
8 | 463 | COc1ccc(C2=NOC3CN(C(=O)OC(C)(C)C)CC23)cc1C(=O)Nc1c(C(=O)Nc2ccc(F)c(C(F)(F)F)c2)sc2cc(C(F)(F)F)ccc12 (single isomer, unassigned) [Example 245, tert-butyl 3-(3-((2-((4-fluoro-3-(trifluoromethyl)phenyl)carbamoyl)-6-(trifluoromethyl)benzo[b]thiophen-3-yl)carbamoyl)-4-methoxyphenyl)-3a,4,6,6a-tetrahydro-5H-pyrrolo[3,4-d]isoxazole-5-carboxylate]
9 | 498 | COc1ccc(C2CCC(O)CC2)cc1C(=O)Nc1c(C(=O)Nc2ccc(F)c(C(F)(F)F)c2)sc2cc(C(F)(F)F)ccc12 (single isomer, unassigned) [Example 76, N-(4-fluoro-3-(trifluoromethyl)phenyl)-3-(5-(4-hydroxycyclo-hexyl)-2-methoxy-benzamido)-6-(trifluoromethyl) benzo[b] thiophene-2-carboxamide]
